Values of other authors as cited in patent US20260092327A1, “METHODS OF MONITORING MUTATIONS IN TREATMENT OF COLORECTAL CANCER” (Cardiff Oncology, Inc., priority 2022, published 2026).

How the values were obtained:
[1] = system: HT29 human colon adenocarcinoma xenografts; conditions: compared to each agent alone
[2] = system: cancer cell lines
[3] = system: HCT-116 KRAS-mutant CRC xenograft; conditions: HCT-116 KRAS-mutant CRC xenograft model
[4] = system: xenograft tumor; conditions: well tolerated doses in mice after oral administration
[5] = system: cell lines from solid and hematologic tumors; conditions: large number of cell lines
[6] = system: disseminated model of AML
[7] = target: PLK1 (Homo sapiens, UniProt P53350); conditions: among a panel of 296 kinases, including other PLK members
[8] = system: advanced/metastatic solid tumors
[9] = adult subjects with advanced/metastatic solid tumors, single agent

Chain of PLK1 (P53350 whole entry): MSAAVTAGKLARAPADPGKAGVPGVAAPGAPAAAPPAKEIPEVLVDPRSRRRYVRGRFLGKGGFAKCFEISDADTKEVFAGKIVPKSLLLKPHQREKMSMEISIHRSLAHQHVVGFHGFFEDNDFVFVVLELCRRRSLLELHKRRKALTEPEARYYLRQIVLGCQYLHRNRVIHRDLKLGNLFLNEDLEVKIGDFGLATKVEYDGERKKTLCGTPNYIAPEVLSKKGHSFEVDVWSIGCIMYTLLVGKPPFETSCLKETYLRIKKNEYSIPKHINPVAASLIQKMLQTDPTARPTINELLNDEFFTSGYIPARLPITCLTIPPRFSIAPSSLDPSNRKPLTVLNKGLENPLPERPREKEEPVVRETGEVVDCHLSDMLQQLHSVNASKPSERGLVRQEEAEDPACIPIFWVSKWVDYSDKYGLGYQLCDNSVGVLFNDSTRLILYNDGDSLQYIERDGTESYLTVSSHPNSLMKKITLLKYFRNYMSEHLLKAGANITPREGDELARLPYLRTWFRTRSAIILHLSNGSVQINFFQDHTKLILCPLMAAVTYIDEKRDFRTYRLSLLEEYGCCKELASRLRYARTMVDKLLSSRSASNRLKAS

CN1CCN(c2ccc(OC(F)(F)F)c(Nc3ncc4c(n3)-c3c(c(C(N)=O)nn3CCO)CC4)c2)CC1 [Onvansertib, 1-(2-hydroxyethyl)-8-{[5-(4-methylpiperazin-1-yl)-2-(trifluoromethoxy)phenyl]amino}-4,5-dihydro-1H-pyrazolo[4,3-h]quinazoline-3-carboxamide]
half-life (in vivo): about 24 hours | oral bioavailability (rodent and nonrodent species): good oral bioavailability | tumor regression in combination with irinotecan [1]: enhanced tumor regression | effect on cell cycle [2]: mitotic cell-cycle arrest followed by apoptosis | anti-tumor activity as single agent [3]: potent anti-tumor activity | combination effect with 5-FU [3]: synergy | combination effect with irinotecan [3]: synergy | xenograft tumor growth [4]: inhibits xenograft tumor growth | potency in proliferation assays [5]: low nanomolar activity | survival of animals in combination with cytarabine [6]: prolonged survival | specificity for PLK1 [7]: high specificity | evaluable patients with stable disease [8, 9]: 5 of 16 | recommended phase 2 dose [8, 9]: 24 mg/m^2 | primary dose-limiting toxicities ([8]; patients with advanced/metastatic solid tumors): neutropenia and thrombocytopenia | recovery of hematologic toxicities ([8]; toxicities reversible): ≤ 3 weeks
